# Reference: patent publication US8889378B2, “Cytochrome C synthesis inhibitors” (priority 2006, dated 2014)
# Legend:
# [1] = test system: system II cytochrome c biogenesis (H. pylori CcsBA); experiment: Metalloprotoporphyrin IX addition, E. coli Δccm with pRGK348 (system II-chuA) and pRGK332; format: cell-based; conditions: for level of heme on c4:6×His: system II, up to 100 μM
# Experimental: (§1) Overnight cultures of an E. coli Δccm strain (or E. coli ΔccmΔhemA) harboring either pRGK333 (system I) or pRGK348 (system II-chuA), pRGK332 (cytochrome c4:6×His), and pHPEX2 (Varnado and Goodwin, 2004) were diluted into fresh LB broth (containing the appropriate antibiotics and 8 μM hemin for the E. coli ΔccmΔhemA strain) and incubated with aeration at 37° C. until the OD600 was approximately 0.5. […] Arabinose (0.2%) was added after one hour and incubation continued for an additional three hours. Cells were harvested and soluble protein was extracted using B-PER (Feissner et al., 2006). Cytochrome c4:6×His was purified from 300 μg of total protein and 20 μL was subjected to SDS-PAGE and transferred to nitrocellulose. Prior to heme stain and c4 immunoblot, the nitrocellulose blots were screened for fluorescence on an LAS-1000plus Luminescent Image Analyzer CCD camera system (Fujifilm; Tokyo, Japan).
# Heme stains were performed as described (Feissner et al., 2003) using SuperSignal Femto chemiluminescent substrate (Pierce). Heme stain quantitation used LOLITA II (Low Light Test Array; raytestUSA; Wilmington, N.C.) for standardization of light intensity detection on an LAS1000plus Luminescent Image Analyzer CCD camera system. For Western blotting, extracts were first separated by 12% or 15% SDS-PAGE and electroblotted onto Hybond-C nitrocellulose membranes (Amersham). […] Chemiluminescence from heme stains and Western blots were detected using an LAS-1000plus Luminescent Image Analyzer CCD camera system (Fujifilm). Protein concentrations were determined using the BCA assay (Pierce) using BSA as a standard. […] Protein concentrations were determined with the BCA assay kit (Pierce) using BSA as a standard.
# ZnPPIX (and SnPPIX), when present with 8 μM heme, may compete with heme for ChuA-dependent transport into the cell. […] When E. coli Δccm with pRGK333 (system I), pRGK332, and pHPEX2 were treated with ZnPPIX, a decrease in holocytochrome c4:6×His was detected as the concentration of ZnPPIX was increased (FIG. 16A left panel, lanes 1-5). […]
# [2] = test system: system I cytochrome c biogenesis; experiment: Metalloprotoporphyrin IX addition, E. coli Δccm with pRGK333 (system I), pRGK332 and pHPEX2; format: cell-based; conditions: for level of heme on c4:6×His: system I, up to 100 μM
# Experimental: as §1
# (§2) Heme stains were performed as described (Feissner et al., 2003) using SuperSignal Femto chemiluminescent substrate (Pierce). Heme stain quantitation used LOLITA II (Low Light Test Array; raytestUSA; Wilmington, N.C.) for standardization of light intensity detection on an LAS1000plus Luminescent Image Analyzer CCD camera system. For Western blotting, extracts were first separated by 12% or 15% SDS-PAGE and electroblotted onto Hybond-C nitrocellulose membranes (Amersham). Protein A peroxidase (Sigma-Aldrich) was used as the secondary label. Detection used the SuperSignal West Femto ECL detection system (Pierce). Chemiluminescence from heme stains and Western blots were detected using an LAS-1000plus Luminescent Image Analyzer CCD camera system (Fujifilm). Protein concentrations were determined using the BCA assay (Pierce) using BSA as a standard. The reduced (10 mM sodium dithionite) and oxidized (10 mM ammonia persulphate) absorption spectra were obtained as previously described (Goldman et al., 1996) using Ni^2+ affinity-purified holocytochrome c4:His. Protein concentrations were determined with the BCA assay kit (Pierce) using BSA as a standard.
# ZnPPIX (and SnPPIX), when present with 8 μM heme, may compete with heme for ChuA-dependent transport into the cell. Using an E. coli Δccm strain (RK103) that has endogenous heme production, it was tested whether ZnPPIX (and SnPPIX) caused a reduction in holocytochrome c4 levels detectable by heme stain. When E. coli Δccm with pRGK333 (system I), pRGK332, and pHPEX2 were treated with ZnPPIX, a decrease in holocytochrome c4:6×His was detected as the concentration of ZnPPIX was increased (FIG. 16A left panel, lanes 1-5).
# The three other metal protoporphyrins, SnPPIX, MnPPIX, and CoPPIX, were also tested in the E. coli Δccm background with system I or II. […]
# [3] = test system: system I cytochrome c biogenesis; experiment: Metalloprotoporphyrin IX addition, E. coli ΔccmΔhemA with pRGK333 (system I), pRGK332, pHPEX2 and 8 μM heme; format: cell-based; conditions: for effect on the level of detectable heme on c4:6×His (holocytochrome c4): metalloporphyrin 8, 12.5 or 25 μM with 8 μM heme
# Experimental: Overnight cultures of an E. coli Δccm strain (or E. coli ΔccmΔhemA) harboring either pRGK333 (system I) or pRGK348 (system II-chuA), pRGK332 (cytochrome c4:6×His), and pHPEX2 (Varnado and Goodwin, 2004) were diluted into fresh LB broth (containing the appropriate antibiotics and 8 μM hemin for the E. coli ΔccmΔhemA strain) and incubated with aeration at 37° C. until the OD600 was approximately 0.5. The mid-log phase cultures were divided into 5 mL aliquots to which IPTG (1 mM) and a metalloprotoporphyrin IX (Zn (II), Sn (IV), Co (III), or Mn (III); 0 μM to 25 μM) were added. Arabinose (0.2%) was added after one hour and incubation continued for an additional three hours. Cells were harvested and soluble protein was extracted using B-PER (Feissner et al., 2006). Cytochrome c4:6×His was purified from 300 μg of total protein and 20 μL was subjected to SDS-PAGE and transferred to nitrocellulose. Prior to heme stain and c4 immunoblot, the nitrocellulose blots were screened for fluorescence on an LAS-1000plus Luminescent Image Analyzer CCD camera system (Fujifilm; Tokyo, Japan).
# as §2
# The chemical properties of iron may not be uniquely critical for its attachment to apocytochrome c during cytochromes c biogenesis. To test whether any of the cytochromes c biogenesis systems can incorporate other metal porphyrins, four metalloporphyrins were chosen to screen for incorporation into the into the CXXCH motif of a c-type cytochrome: ZnPPIX, SnPPIX, MnPPIX, and CoPPIX. These four metalloporphyrins were tested to determine whether heme can be replaced by other metalloporphyrins in the c-type cytochrome (c4:6×His) reporter. Cultures of E. coli ΔccmΔhemA containing pRGK333 (system I), pRGK332 (c4:6×His), and pHPEX2 were grown overnight in 300 μM ALA and subcultured into fresh LB medium containing 8 μM heme and grown to an OD600 of 0.5. IPTG and metalloporphyrin (8 μM, 12.5 μM, or 25 μM) were then added and growth continued for one hour. Arabinose was added to 0.2% to induce the synthesis of the c4:6×His and growth continued for three more hours before cells were harvested. […] As expected, heme was detected on c4:6×His when either 8 μM or 25 μM heme alone was added (FIG. 15 lanes 1 and 2, respectively).
# [4] = test system: system II cytochrome c biogenesis (H. pylori CcsBA); experiment: NMPP inhibition of holocytochrome c4:His synthesis, RK103 with pRGK334 (system II) and pRGK332; format: cell-based, E. coli; conditions: all trials; heme stain
# Experimental: (§3) Five milliliter cultures of E. coli Δccm harboring either the pRGK333 or pRGK334 plasmid and pRGK332, or pRGK345 and pRGK349, were inoculated with 300 μl of overnight culture grown for 3 h to mid-exponential phase (A600=0.6). At this point, IPTG and NMPP (Frontier Scientific) were added to each culture; IPTG was added (1 mM) to induce the synthesis of system I (pRGK333), system II (pRGK334), or ΔccmE (pRGK345) while NMPP (10 mM stock in 50% DMSO) was added to a final concentration of 0-100 μM. After addition of IPTG and NMPP, cultures were grown an additional hour before induction of cytochrome c4:His (and ccmE from pRGK349) with 0.2% arabinose. Cells were grown for an additional 3 h and then harvested by centrifugation. […]
# (§4) Heme stains were performed as described (Feissner et al., 2003) using SuperSignal Femto chemiluminescent substrate (Pierce). Heme stain quantitation used LOLITA II (Low Light Test Array; raytestUSA; Wilmington, N.C.) for standardization of light intensity detection on an LAS1000plus Luminescent Image Analyzer CCD camera system. […] Chemiluminescence from heme stains and Western blots were detected using an LAS-1000plus Luminescent Image Analyzer CCD camera system (Fujifilm). Protein concentrations were determined using the BCA assay (Pierce) using BSA as a standard. […] Protein concentrations were determined with the BCA assay kit (Pierce) using BSA as a standard. […]
# [5] = test system: system I cytochrome c biogenesis; experiment: NMPP-ZnPPIX combined inhibition, E. coli Δccm with pRGK333 (system I), pRGK332 and pHPEX2; format: cell-based
# Experimental: 100 mL cultures of E. coli Δccm containing pRGK333 (system I), pRGK332 (c4:6×His), and pHPEX2 (Varnado and Goodwin, 2004) were inoculated with 1% (v/v) from an overnight culture and grown with aeration at 37° C. to an OD600 of approximately 0.5. The mid-log phase cultures were divided into 5 mL aliquots to which IPTG (1 mM, to induce the synthesis of the system I proteins and the chuA gene) and NMPP (0 μM to 100 μM) were added. After one hour 0.2% arabinose was added (to induce the synthesis of the B. pertussis c4:6×His) and cultures were incubated an additional three hours. […]
# as §4
# [6] = test system: system I cytochrome c biogenesis with arabinose-inducible CcmE; experiment: NMPP inhibition, RK103 with pRGK345 (system I, ccmE deletion) and pRGK349 (arabinose-inducible c4:His and CcmE); format: cell-based, E. coli; conditions: 100 μM NMPP; compared with pRGK333 and constitutively produced CcmE
# Experimental: as §3, §4
# [7] = test system: E. coli Δccm; experiment: Growth of E. coli Δccm with pRGK333, pRGK332 and pHPEX2 in the presence of ZnPPIX; format: cell-based; conditions: 12.5 μM or 25 μM; compared to the same strain without ZnPPIX
# Experimental: FIG. 21. Growth of E. coli Dccm containing pRGK333, pRGK332, and HPEX2 in the presence of ZnPPIX. Overnight cultures of E. coli Dccm containing pRGK333 (system I), pRGK332 (cytochrome c4:6×His), and pHPEX2 were diluted into fresh LB broth containing the indicated ZnPPIX ([…]) concentrations for growth measurements.
# To rule out that ZnPPIX is not affecting some basic cellular processes, growth studies were performed with E. coli Δccm harboring pRGK333 (system I), pRGK332 (c4:6×His), and pHPEX2.
molecule,measurement,setting,value
"C=Cc1c2[n-]c(c1C)/C=c1\[n-]/c(c(C)c1C=C)=C\c1[n-]c(c(CCC(=O)O)c1C)C=c1[n-]/c(c(C)c1CCC(=O)O)=C\2.[Sn+4] [SnPPIX, tin (IV) protoporphyrin IX]",IC50,"[1]; holocytochrome c4:6×His, heme stain, read-out: concentration required for 50% inhibition of system II",~18 µM
same,IC50,"[2]; holocytochrome c4:6×His, heme stain, read-out: concentration required for 50% inhibition of system I",~65 µM
same,effect on the level of detectable heme on c4:6×His (holocytochrome c4),[3],reduced the level of detectable heme
N-methylprotoporphyrin [NMPP],NMPP concentration at which holocytochrome c4:His production was completely abolished,[4],less than 20 μM
same,holocytochrome c4:6×His levels,[5]; 60 μM NMPP alone,approximately 54%
same,holocytochrome c4:6×His levels,[5]; 100 μM NMPP alone,approximately 30%
same,amount of holocytochrome c4:His,[6],dramatic reduction
"C=CC1=C(C)c2cc3[n-]c(cc4[n-]c(cc5nc(cc1n2)C(C)=C5C=C)c(C)c4CCC(=O)O)c(CCC(=O)O)c3C.[Zn+2] [ZnPPIX, zinc (II) protoporphyrin IX]",rate or yield of growth,[7],no decrease in the rate or yield of growth
same,"holocytochrome c4:6×His produced, % of wild type levels",[2]; 8 μM ZnPPIX,approximately 20%
same,level of heme on c4:6×His,"[3]; 25 μM ZnPPIX with 8 μM heme, heme stain",nearly undetectable
same,effect on the level of detectable heme on c4:6×His (holocytochrome c4),[3],decreasing amounts of holocytochrome c4
"C=CC1=C(C)c2cc3[n-]c(cc4[n-]c(cc5nc(cc1n2)C(C)=C5C=C)c(C)c4CCC(=O)[O-])c(CCC(=O)[O-])c3C.[H+].[H+].[Mn+2] [MnPPIX, manganese (III) protoporphyrin IX]",level of heme on c4:6×His,[1],no decrease
same,level of heme on c4:6×His,[2],no decrease
same,effect on the level of detectable heme on c4:6×His (holocytochrome c4),[3],neither CoPPIX nor MnPPIX had any affect
"C=Cc1c(C)c2cc3[nH]c(cc4nc(cc5nc(cc1[nH]2)C(C)=C5CCC(=O)[O-])C(CCC(=O)[O-])=C4C)c(C)c3C=C.[Co+2] [CoPPIX, cobalt (III) protoporphyrin IX]",level of heme on c4:6×His,[1],no decrease
same,level of heme on c4:6×His,[2],no decrease
same,effect on the level of detectable heme on c4:6×His (holocytochrome c4),[3],neither CoPPIX nor MnPPIX had any affect
